Measurements as given in patent publication US5459270A, “Azacyclic compounds, processes for their preparation and pharmaceutical compositions containing them” (Merck Sharp & Dohme Limited, priority 1991, dated 1995).
“And” between values parts separate entries of the source, which are not always exact repeats. Equal entries are not always repeated. Structures can show the parent of a compound that is named as a salt. Where two headings read alike, the source gives them in different places.

Target: human neurokinin-1-receptor (NK1R) (Homo sapiens, UniProt P25103)
Sequence (P25103 whole entry): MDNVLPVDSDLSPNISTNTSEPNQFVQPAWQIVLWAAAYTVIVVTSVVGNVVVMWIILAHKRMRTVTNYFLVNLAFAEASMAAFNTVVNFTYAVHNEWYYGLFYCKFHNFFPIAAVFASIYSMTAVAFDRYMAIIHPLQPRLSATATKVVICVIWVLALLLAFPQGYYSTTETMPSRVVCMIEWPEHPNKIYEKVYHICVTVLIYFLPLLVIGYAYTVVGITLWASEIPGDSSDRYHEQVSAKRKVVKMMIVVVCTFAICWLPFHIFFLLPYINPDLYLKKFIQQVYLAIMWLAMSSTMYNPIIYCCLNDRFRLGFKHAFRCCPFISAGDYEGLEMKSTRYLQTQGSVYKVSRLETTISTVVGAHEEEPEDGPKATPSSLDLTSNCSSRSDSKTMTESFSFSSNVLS
Experiment: biochemical
Type: binding
Details: for IC50: displacement of 125I-substance P; for inhibition at 0.3 µM / inhibition at 1 µM: 1 h; for inhibition at 0.3 µM: read-out: % @ 300 nM (in column IC50 @ NKIR); for inhibition at 1 µM: read-out: % @ 1 μM (in column IC50 @ NKIR)
Method: To express the cloned human neurokinin-1-receptor (NK1R) transiently in COS, the cDNA for the human NK1R was cloned into the expression vector pCDM9 which was derived from pCDM8 (INVITROGEN) by inserting the ampicillin resistance gene (nucleotide 1973 to 2964 from BLUESCRIPT SK+ (trademark, […], La Jolla, Calif., USA)) into the Sac II site. Transfection of 20 ug of the plasmid DNA into 10 million COS cells was achieved by electroporation in 800 μl of transfection buffer (135 mM NaCl, 1.2 mM CaCl2, 1.2 mM MgCl2, 2.4 mM K2 HPO4, 0.6 mM KH2 PO4, 10 mM glucose, 10 mM N-2-hydroxyethyl-piperazine-N'-2-ethane sulphonic acid (HEPES) pH 7.4) at 260 V and 950 μF using the IBI GENEZAPPER (trademark IBI, New Haven, Conn., USA). The cells were incubated in 10% fetal calf serum, 2 mM glutamine, 100 U/ml penicillin-streptomycin, and 90% DMEM media (GIBCO, Grand Island, N.Y., USA) in 5% CO2 at 37° C. for three days before the binding assay.
To establish a stable cell line expressing cloned human NK1R, the cDNA was subcloned into the vector pRcCMV (INVITROGEN). Transfection of 20 μg of the plasmid DNA into CHO cells was achieved by electroporation in 800 μl of transfection buffer supplemented with 0.625 mg/ml Herring sperm DNA at 300 V and 950 μF using the IBI GENEZAPPER (IBI). The transfected cells were incubated in CHO media [10% fetal calf serum, 100 U/ml penicillin-streptomycin, 2 mM glutamine, 1/500 hypoxanthine-thymidine (ATCC), 90% IMDM media (JRH BIOSCIENCES, Lenexa, Kans., USA), 0.7 mg/ml G418 (GIBCO)] in 5% CO2 at 37° C. until colonies were visible. Each colony was separated and propagated. The cell clone with the highest number of human NK1R was selected for subsequent applications such as drug screening.
The binding assay of human NK1R expressed in either COS or CHO cells is based on the use of ^125 I-substance P (^125 I-SP, from DU PONT, Boston, Mass.) as a radioactively labeled ligand which competes with unlabeled substance P or any other ligand for binding to the human NK1R. […] The tubes were incubated at 4° C. or at room temperature for 1 hour with gentle shaking. The bound radioactivity was separated from unbound radioactivity by GF/C filter (BRANDEL, Gaithersburg, Md.) which was pre-wetted with 0.1% polyethylenimine. The filter was washed with 3 ml of wash buffer (50 mM Tris pH 7.5, 5 mM MnCl2, 50 mM NaCl) three times and its radioactivity was determined by gamma counter.

[1] = human NK1R in COS or CHO cells, read-out: IC50 @ NKIR
[2] = IC50 @ NKIR, human NK1R in COS or CHO cells
[3] = 300 nM, human NK1R in COS or CHO cells, 125I-substance P

| Compound | IC50 [1] | also measured |
| --- | --- | --- |
| Cc1cc(C)cc(CO[C@H]2CCCN[C@H]2c2ccccc2)c1 (relative stereo) [Example 2, cis-3-((3,5-Dimethylphenyl)methyloxy)-2-phenylpiperidine hydrochloride salt] | < 3 nM | – |
| CC1(OCc2cc(C(F)(F)F)cc(C(F)(F)F)c2)CCCNC1c1ccccc1 (stereo not shown) [Example 48, 3-((3,5-Bis(trifluoromethyl)phenyl)methyloxy)-3-methyl-2-phenylpiperidine oxalate salt] | 45 nM | – |
| COc1ccc([N+](=O)[O-])cc1CO[C@H]1CCCN[C@H]1c1ccccc1 (relative stereo) [Example 45, cis-3-((2-Methoxy-5-nitrophenyl)methyloxy)-2-phenylpiperidine hydrochloride salt] | – | inhibition at 0.3 µM: 42% |
| O=C(CN1CCC[C@H](OCc2cc(C(F)(F)F)cc(C(F)(F)F)c2)[C@@H]1c1ccccc1)NC1CC1 [Example 57, (2S,3S)-3-((3,5-Bis(trifluoromethyl)phenyl)methyloxy)-1-((N-cyclopropyl)-2-phenylpiperidinium hydrochloride] | 2.5 nM | – |
| O=C1CC[C@H](OCc2cc(C(F)(F)F)cc(C(F)(F)F)c2)[C@H](c2ccccc2)N1 (relative stereo) [Example 28, cis-3-((3,5-Bis(trifluoromethyl)phenyl)methyloxy)-6-keto-2-phenyl piperidine] | 15 nM | – |
| Cc1cc(CO[C@H]2CCCN[C@H]2c2ccccc2)cc([Si](C)(C)C)c1 [Example 44, cis-3-((3-methyl-5-trimethylsilyl)benzyloxy)-2-phenyl piperidine] | – | IC50 [2]: 0.3 nM |
| Cc1ccc([C@@H]2NCCC[C@@H]2OCc2cc(C(F)(F)F)cc(C(F)(F)F)c2)cc1 (relative stereo) [Example 24, cis-3-(3,5,-Bis(trifluoromethyl)phenyl)methyloxy)-2-(4-methylphenyl)piperidine hydrochloride salt] | 15 nM | – |
| FC(F)(F)c1cc(CO[C@H]2CCCN[C@H]2c2cccc(Cl)c2)cc(C(F)(F)F)c1 (relative stereo) [Example 22, cis-3-((3,5-Bis(trifluoromethyl)phenyl)methyloxy)-2-(3-chlorophenyl)piperidine hydrochloride salt] | 5 nM | – |
| Cc1cc(I)cc(CO[C@H]2CCCN[C@H]2c2ccccc2)c1 [Example 36] | 0.5 nM | – |
| CN1CCC[C@H](OCc2cc(C(F)(F)F)cc(C(F)(F)F)c2)[C@@H]1c1ccccc1 [Example 10, (+)-cis-3-((3,5-Bis(trifluoromethyl)phenyl)methyloxy)-1-methyl-2-phenylpiperidine] | 20 nM | – |
| COC(=O)CCN1CCC[C@H](OCc2cc(C(F)(F)F)cc(C(F)(F)F)c2)[C@@H]1c1ccccc1 (relative stereo) [Example 29, cis-3-((3,5-Bis(trifluoromethyl)phenyl)methyloxy)-1-(2-carbomethoxy)ethyl-2-phenylpiperidine] | 40 nM | – |
| FC(F)(F)c1cc(CO[C@H]2CCCN(Cc3cc(C(F)(F)F)cc(C(F)(F)F)c3)[C@H]2c2ccccc2)cc(C(F)(F)F)c1 (relative stereo) [Example 42] | – | inhibition at 0.3 µM [3]: 45% |
| CC1CC[C@H](OCc2cc(C(F)(F)F)cc(C(F)(F)F)c2)[C@H](c2ccccc2)N1 (stereo partly drawn) [Example 20, cis-3-(3,5-Bis(trifluoromethyl)phenyl)methyloxy-6-methyl-2-phenyl piperidinium hydrochloride] | 2 nM | – |
| FC(F)(F)c1cc(CO[C@H]2CCCN[C@H]2c2ccccc2)cc(C(F)(F)F)c1 [Example 5, (+)-cis-3((3,5-Bis(trifluoromethyl)phenyl)methyloxy)-2-phenylpiperidine hydrochloride salt] | 1 nM | – |
| Cc1cc(C)cc(CO[C@H]2CN(C)[C@H]2c2ccccc2)c1 (relative stereo) [Example 51, cis-3-((3,5-Dimethylphenyl)methyloxy)-1-methyl-2-phenyl azetidine oxalate salt] | – | inhibition at 1 µM: 40% |
| COC(=O)C(C)N1CCCC(OCc2cc(C(F)(F)F)cc(C(F)(F)F)c2)C1c1ccccc1 (single isomer, unassigned) [Example 18] | 0.6 nM | – |

| Compound | IC50 [1] | also measured |
| --- | --- | --- |
| CC(C(N)=O)N1CCC[C@H](OCc2cc(C(F)(F)F)cc(C(F)(F)F)c2)[C@@H]1c1ccccc1 (single isomer, unassigned) [Example 19, hydrochloride] | 0.9 nM | – |
| FC(F)(F)c1cc(CO[C@H]2CCCN[C@H]2c2ccccc2Cl)cc(C(F)(F)F)c1 (relative stereo) [Example 21, cis-3-((3,5-Bis(trifluoromethyl)phenyl)methyloxy)-2-(2-chlorophenyl)piperidine] | 40 nM | – |
| FC(F)(F)c1cc(CO[C@H]2CCCN[C@H]2c2ccc(Cl)cc2)cc(C(F)(F)F)c1 (relative stereo) [Example 23, cis-3-((3,5-Bis(trifluoromethyl)phenyl)methyloxy)-2-(4-chlorophenyl)piperidine hydrochloride salt] | 35 nM | – |
| COC(=O)CCCN1CCC[C@H](OCc2cc(C(F)(F)F)cc(C(F)(F)F)c2)[C@@H]1c1ccccc1 (relative stereo) [Example 31, cis-3-((3,5Bis(trifluoromethyl)phenyl)methyloxy)-1-(3-carbomethoxy)propyl-2-phenylpiperidine] | 100 nM | – |
| Cc1cc(C)cc(CO[C@@H]2CCCN[C@H]2c2ccccc2)c1 (relative stereo) [Example 12, trans-((3.5-Dimethylphenyl)methyloxy)-2-phenyl piperidine hydrochloride salt] | – | inhibition at 1 µM (1 μM, human NK1R in COS or CHO cells, 125I-substance P): 46% |
| NC(CN1CCC[C@H](OCc2cc(C(F)(F)F)cc(C(F)(F)F)c2)[C@@H]1c1ccccc1)=NO (relative stereo) [Example 39] | 0.9 nM | – |
| CC(C)(C)NC(=O)CN1CCC[C@H](OCc2cc(C(F)(F)F)cc(C(F)(F)F)c2)[C@@H]1c1ccccc1 [Example 56, (2S,3S)-3-((3,5-Bis(trifluoromethyl)phenyl)methyloxy-1-((N-t-butyl)carboxamidomethyl)-2-phenylpiperidinium hydrochloride] | 25 nM | – |
| FC(F)(F)c1cc(CO[C@H]2CCCN[C@H]2c2ccccc2)cc(C(F)(F)F)c1 (relative stereo) [Example 4, cis-3-((3,5-Bis(trifluoromethyl)phenyl)methyloxy)-2-phenylpiperidine hydrochloride salt] | 2 nM and 1.4 nM | – |
| cis-3-((3,5-Bis(trifluoromethyl)phenyl)methyloxy-1-(N-benzylcarboxamido)methyl-2-phenyl piperidinium hydrochloride [Example 49] | 20 nM | – |
| CCN(CC)C(=O)CN1CCCC(OCc2cc(C(F)(F)F)cc(C(F)(F)F)c2)C1c1ccccc1 (single isomer, unassigned) [Example 43, cis-3-((3,5-Bis(trifluoromethyl)phenyl)methyloxy-1-(N,N-diethylcarboxamido)methyl-2-phenylpiperidinium hydrochloride] | 1.4 nM | – |
| OCC1CC[C@H](OCc2cc(C(F)(F)F)cc(C(F)(F)F)c2)[C@H](c2ccccc2)N1 (stereo partly shown) [Example 55] | 2 nM | – |
| FC(F)(F)c1cc(CO[C@H]2CCCN[C@H]2c2ccccn2)cc(C(F)(F)F)c1 (relative stereo) [Example 26, cis-3-((3,5-Bis(trifluoromethyl)phenyl)methyloxy)-2-pyridyl piperidine dihydrochloride salt] | – | inhibition at 0.3 µM [3]: 41% |
| Cc1cc(CO[C@H]2CCCN(C(=O)OC(C)(C)C)[C@H]2c2ccccc2)cc([Si](C)(C)C)c1 [Example 33] | – | IC50 [2]: > 300 nM |
| CC(C)(C)c1cc(CO[C@H]2CCCN[C@H]2c2ccccc2)cc(C(C)(C)C)c1 (relative stereo) [Example 35, cis-3-((3,5.-Di-t-butylphenyl)methyloxy)-2-phenylpiperidine oxalate salt] | 100 nM | – |
| O=CN1CCC[C@H](OCc2cc(C(F)(F)F)cc(C(F)(F)F)c2)[C@@H]1c1ccccc1 [Example 16, (2S,3S)-1-Formyl-3-((3,5-bis(trifluoromethyl)phenyl)methyloxy)-2-phenyl piperidine] | 80 nM | – |
